# Measurements taken from patent US12679820B2, “Cocrystals, pharmaceutical compositions thereof, and methods of treatment involving same” (Servier Pharmaceuticals LLC, priority 2017, dated 2026).
# Where two headings read alike, the source gives them in different places.
# How the values were obtained:
# [1] = Pharmacokinetics of Compound 1 solid forms in plasma following single PO administration (IV bolus reference) in male Sprague Dawley rats; assay type: in vivo; settings: for AUCinf: oral gavage 10 mg/kg (as free Compound 1); for AUCinf / AUC(0-inf) / bioavailability: plasma; for AUCinf / Absolute % F: 10 mg/kg; for Absolute % F: oral gavage 10 mg/kg; for AUC(0-inf) / bioavailability: male, rat; for bioavailability: read-out: Absolute % F
# Experimental: Study Design. Twelve (12) male Sprague Dawley rats (purchased from SLAC Laboratory Animal Co. LTD were randomized into four groups (3 animals per group). The animals were fasted overnight, the forms of Compound 1 shown in Table 24 were administered by oral gavage, and the animals were fed 4 hours post-dose. Each form of Compound 1 was administered as a suspension in water containing 0.5% microcrystalline cellulose and 0.1% Tween 80. The Dose Levels and Dose Concentrations shown in Table 24 are based on the corresponding amount of free Compound 1.
# Blood Collection. Blood was serially collected from each animal 0.083 hr, 0.25 hr, 0.5 hr, 1 hr, 2 hr, 4 hr, 8 hr, 24 hr, 48 hr, and 72 hrs post-dose. For each collection, the animal was restrained manually, and approximately 150 μL of blood sample was collected via the tail vein into K2EDTA tubes. The blood samples were put on ice and centrifuged at 2000 g for 5 min to obtain plasma. Plasma samples were stored at approximately −70° C. until analysis.
# To enable the calculation of oral bioavailability, Compound 1 was dissolved in a vehicle containing 10% N-Methyl-2-pyrrolidone (NMP), 10% Solutol HS 15, and 80% saline and administered at 1 mg/kg as intravenous (IV) bolus dose to a separate group of male Sprague-Dawley rats, and blood samples were collected at similar time points to those shown above. Further, plasma samples were obtained from the collected blood samples and stored at approximately −70° C. until analysis.
# Further, the amorphous solid dispersion of Compound 1, as described in Example 23, was suspended in an aqueous vehicle containing 0.5% methyl cellulose (MC) and 0.2% Tween80 at 0.2 mg/mL concentration and dosed at 1 mg/kg as a single oral dose to a separate group of male Sprague-Dawley rats after an overnight fasting. Blood samples were collected at similar time points to those shown above. Further, plasma was harvested and stored at approximately −70° C. until analysis.
# Sample Preparation and Analysis. The concentration of Compound 1 in the plasma samples was determined by LC-MS/MS analysis.
# A 20 μL aliquot of each sample was diluted with 200 μL of acetonitrile containing dexamethasone as an internal standard (40 ng/mL). The resulting mixture was vortexed for 2 min and centrifuged at 5800 rpm for 10 min. A 2 μL sample was injected into LC-MS/MS.
# Results. Historical data for IV administration of Compound 1 and administration of Compound 1 as a spray dried dispersion are also provided in Table 26. The absolute bioavailability of each form of Compound 1 was determined by dividing the AUCinf of the form in question by the AUCinf obtained by IV administration of Compound 1 and correcting for differences in dose. The measured absolute bioavailability of the citrate and maleate cocrystals, as reported in Table 26, was higher than the measured bioavailability of the other forms of Compound 1.
# mutant IDH2 = settings: biochemical and cellular assays; cited from earlier work
# mutant IDH1 = settings: biochemical and cellular assays; cited from earlier work
# [2] = Hygroscopicity by Dynamic Vapor Sorption (DVS) analysis; assay type: physicochemical; settings: for water uptake at 80% relative humidity / hygroscopicity: DVS at 25° C.; for water uptake at 80% relative humidity: range 0-95% relative humidity; for form change after DVS analysis (XRPD of the remaining material): XRPD after DVS at 25° C., 0-95% relative humidity
# Experimental: Dynamic Vapor Sorption (DVS) Analysis. DVS was measured via a SMS (Surface Measurement Systems) DVS Intrinsic. The relative humidity at 25° C. were calibrated against deliquescence point of LiCl, Mg(NO3)2 and KCl. [table] The hygroscopicity of the cocrystal was determined by DVS analysis at 25° C., over a range of 0-95% relative humidity. […]
# [3] = male Sprague Dawley rats, fasted
# [4] = male Sprague Dawley rats, vs IV AUCinf, dose-corrected
# [5] = listed as Maleic Acid Cocrystal Type A
# [6] = listed as Citric Acid Cocrystal Type A
structure (smiles),measurement,setting,value
C[C@@H](Nc1nc(N[C@H](C)C(F)(F)F)nc(-c2cccc(Cl)n2)n1)C(F)(F)F [Free Form A],AUCinf,[1]; [3],30698 ng·h/mL
same,Absolute % F,[1]; [4],63.9%
C[C@@H](Nc1nc(N[C@H](C)C(F)(F)F)nc(-c2cccc(Cl)n2)n1)C(F)(F)F [Free Form C],AUCinf,[1]; [3],10846 ng·h/mL
same,Absolute % F,[1]; [4],22.6%
"C[C@@H](Nc1nc(N[C@H](C)C(F)(F)F)nc(-c2cccc(Cl)n2)n1)C(F)(F)F [Compound 1, 6-(6-chloropyridin-2-yl)-N^2,N^4-bis((R)-1,1,1-trifluoropropan-2-yl)-1,3,5-triazine-2,4-diamine]",inhibitor of mutant IDH2 protein,mutant IDH2,inhibitor
same,AUC(0-inf),"[1]; Sprague-Dawley, iv, 1 mg/kg, IV bolus 1 mg/kg, male Sprague-Dawley rats, historical data",4800 ng·h/mL
same,bioavailability,"[1]; Sprague-Dawley, iv, 1 mg/kg, IV bolus 1 mg/kg, male Sprague-Dawley rats, historical data (reference)",100%
same,inhibitor of mutant IDH1 protein,mutant IDH1,inhibitor
C[C@@H](Nc1nc(N[C@H](C)C(F)(F)F)nc(-c2cccc(Cl)n2)n1)C(F)(F)F [Maleate Cocrystal Type A],AUCinf,[1]; [3],38625 ng·h/mL
same,Absolute % F,[1]; [4],80.4%
same,water uptake at 80% relative humidity,[2]; [5],2.0%
same,hygroscopicity,[2]; [5],slightly hygroscopic
same,form change after DVS analysis (XRPD of the remaining material),[2],no form change had occurred
C[C@@H](Nc1nc(N[C@H](C)C(F)(F)F)nc(-c2cccc(Cl)n2)n1)C(F)(F)F [Citrate Cocrystal Type A],AUC(0-inf),"[1]; Sprague Dawley, po, 11.7 mg/kg, oral gavage 11.7 mg/kg (as free Compound 1), male Sprague Dawley rats, fasted",58200 ng·h/mL
same,bioavailability,"[1]; Sprague Dawley, po, 11.7 mg/kg, oral gavage 11.7 mg/kg, male Sprague Dawley rats, vs IV AUCinf, dose-corrected",104%
same,bioavailability (in words),[1]; summary statement referring to the Examples,favorable bioavailability
same,water uptake at 80% relative humidity,[2]; [6],0.5%
same,hygroscopicity,[2]; [6],slightly hygroscopic
same,hygroscopicity,[2]; listed as citric acid cocrystal type A,low hygroscopicity
same,form change after DVS analysis (XRPD of the remaining material),[2],no form change had occurred
